Test results from patent US9969771B2, “Tetrapeptide having effect of inhibiting VEGF-induced angiogenesis and use thereof” (AVIXGEN INC., priority 2015, dated 2018).
Where a SMILES comes first, the peptide text is derived from it.

Experiments:
[1] = tested on: B16F10 mouse melanoma cells; assay: Tumor metastasis experiment model (B16F10); format: in vivo, C57BL/6J mouse; conditions: B16F10, 1 mg/kg per day peritoneally, three weeks, versus untreated control mouse
Method: 1×10^5 B16F10 mouse melanoma cells were injected into the caudal vein in the C57BL/6J mouse, and 1 mg/kg (100 μl) of RLYE (SEQ ID NO: 2) was peritoneally injected daily for 3 weeks. The lung was extracted and washed with Dulbecco's PBS, fixed in a 4% paraformaldehyde solution overnight, and the number of tumor metastasis shown on the entire surface of the lung was counted under a stereoscopic microscope.

Akt = assay: Western blot, Akt phosphorylation in VEGF-A-stimulated HUVECs; format: cell-based, human; conditions: HUVECs stimulated with VEGF-A
Method: (§1) Cells were lyzed in RIPA buffer, and 50 μg of proteins were isolated by SDS-PAGE and then transferred to a PVDF membrane. The membrane was reacted with an antibody with respect to a target protein for 2 hours. The membrane was washed twice and reacted with a horseradish peroxidase-conjugated antibody, and then an amount of the target proteins was assessed with an enhanced chemiluminescence system.

[2] = tested on: VEGF-A-induced angiogenesis; assay: Matrigel implantation, intravital fluorescence microscopy; format: in vivo, C57BL/6J mouse; conditions: mouse, RLYE 1.5 nM, VEGF 100 ng
Method: Formation of new blood vessels was examined by intravital fluorescence microscopy. A C57BL/6J mouse was anesthetized, and then a titanium-made imaging window was installed between the skin and an abdominal wall by surgery. 100 μl of Matrigel containing RLYE (SEQ ID NO: 2) (1.5 nM) alone or in combination with VEGF (100 ng) was injected into an inner space between the skin and abdominal walls of the window. Four days later, 50 μl of dextran (MW 250 kDa) labeled with 25 mg/ml of FITC was injected into the caudal vein, and then formation of new blood vessels was observed under a Zeiss Axiovert 200M microscope (Carl Zeiss). A vascular length density of the FITC-labeled dextran-perfuse blood vessels per observation area (mm/mm2) was calculated.

FAK = assay: Western blot, FAK phosphorylation in VEGF-A-stimulated HUVECs; format: cell-based, human; conditions: HUVECs stimulated with VEGF-A
Method: as §1

VEGFR-1 = biological target: T1, VEGFR-1 (Homo sapiens, UniProt P17948); assay: VEGFR pull-down assay using biotin-labeled RLYE, VEGFR-1; format: binding; conditions: HUVEC lysate
T1 construct: endogenous in cells; host or cells: HUVEC lysate
T1 sequence (P17948 27-1338): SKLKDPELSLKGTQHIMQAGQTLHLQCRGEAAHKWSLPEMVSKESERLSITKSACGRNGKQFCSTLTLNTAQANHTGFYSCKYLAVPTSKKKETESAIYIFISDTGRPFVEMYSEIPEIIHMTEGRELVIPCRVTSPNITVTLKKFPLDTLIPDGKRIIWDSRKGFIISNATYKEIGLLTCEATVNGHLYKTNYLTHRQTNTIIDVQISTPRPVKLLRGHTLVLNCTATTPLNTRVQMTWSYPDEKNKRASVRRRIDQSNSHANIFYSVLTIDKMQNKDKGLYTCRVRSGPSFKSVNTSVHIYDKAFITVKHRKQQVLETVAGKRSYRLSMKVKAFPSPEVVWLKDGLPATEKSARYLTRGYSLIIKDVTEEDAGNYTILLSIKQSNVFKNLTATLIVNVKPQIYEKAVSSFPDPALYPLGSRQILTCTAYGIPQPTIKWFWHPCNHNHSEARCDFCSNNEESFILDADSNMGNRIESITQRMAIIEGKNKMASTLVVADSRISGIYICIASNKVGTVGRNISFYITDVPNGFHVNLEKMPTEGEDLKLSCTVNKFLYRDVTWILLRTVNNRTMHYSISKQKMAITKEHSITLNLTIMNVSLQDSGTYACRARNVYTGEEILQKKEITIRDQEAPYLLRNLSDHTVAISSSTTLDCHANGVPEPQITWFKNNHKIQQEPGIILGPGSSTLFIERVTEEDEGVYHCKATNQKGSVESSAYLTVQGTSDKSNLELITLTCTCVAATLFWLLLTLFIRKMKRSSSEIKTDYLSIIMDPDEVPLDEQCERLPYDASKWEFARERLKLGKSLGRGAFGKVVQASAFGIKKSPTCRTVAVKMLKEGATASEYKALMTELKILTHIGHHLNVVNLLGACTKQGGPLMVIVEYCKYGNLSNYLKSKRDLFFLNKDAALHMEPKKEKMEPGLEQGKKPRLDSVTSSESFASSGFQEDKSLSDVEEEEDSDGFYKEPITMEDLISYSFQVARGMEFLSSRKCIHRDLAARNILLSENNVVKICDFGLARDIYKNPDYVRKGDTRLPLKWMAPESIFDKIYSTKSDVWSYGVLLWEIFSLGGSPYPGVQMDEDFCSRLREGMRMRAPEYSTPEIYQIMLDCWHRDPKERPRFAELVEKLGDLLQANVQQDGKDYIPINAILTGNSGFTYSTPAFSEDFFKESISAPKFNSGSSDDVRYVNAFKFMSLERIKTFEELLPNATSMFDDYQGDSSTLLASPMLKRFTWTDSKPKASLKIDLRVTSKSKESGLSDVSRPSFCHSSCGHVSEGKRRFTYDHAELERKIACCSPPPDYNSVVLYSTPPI
Method: HUVECs were lysed in a pull-down buffer [50 mM Tris-HCl (pH 8.0), 150 mM sodium chloride, 1.0% NP-40, 0.5% sodium deoxycholate and 0.1% SDS]. A lysate ([…] of proteins) was reacted with biotin-labeled RLYE (SEQ ID NO: 2) (0.15 or 1.5 nM) for 1 hour, and reacted with streptavidin-agarose beads ([…]) at 4° C. for 1 hour. RLYE (SEQ ID NO: 2)-binding proteins were isolated from the cell lysate through centrifugation, washed, and then boiled for 10 minutes. The bead-binding proteins were isolated by SDS-PAGE, and immunoblotting was performed with an antibody with respect to VEGFR-2 or VEGFR-1.

VEGFR-2 = VEGFR-2 (Homo sapiens, UniProt P35968); assay: Surface plasmon resonance (SPR) assay; format: binding; conditions: rhVEGFR-2 fixed on CM5 chip
Chain of VEGFR-2 (P35968 20-1356): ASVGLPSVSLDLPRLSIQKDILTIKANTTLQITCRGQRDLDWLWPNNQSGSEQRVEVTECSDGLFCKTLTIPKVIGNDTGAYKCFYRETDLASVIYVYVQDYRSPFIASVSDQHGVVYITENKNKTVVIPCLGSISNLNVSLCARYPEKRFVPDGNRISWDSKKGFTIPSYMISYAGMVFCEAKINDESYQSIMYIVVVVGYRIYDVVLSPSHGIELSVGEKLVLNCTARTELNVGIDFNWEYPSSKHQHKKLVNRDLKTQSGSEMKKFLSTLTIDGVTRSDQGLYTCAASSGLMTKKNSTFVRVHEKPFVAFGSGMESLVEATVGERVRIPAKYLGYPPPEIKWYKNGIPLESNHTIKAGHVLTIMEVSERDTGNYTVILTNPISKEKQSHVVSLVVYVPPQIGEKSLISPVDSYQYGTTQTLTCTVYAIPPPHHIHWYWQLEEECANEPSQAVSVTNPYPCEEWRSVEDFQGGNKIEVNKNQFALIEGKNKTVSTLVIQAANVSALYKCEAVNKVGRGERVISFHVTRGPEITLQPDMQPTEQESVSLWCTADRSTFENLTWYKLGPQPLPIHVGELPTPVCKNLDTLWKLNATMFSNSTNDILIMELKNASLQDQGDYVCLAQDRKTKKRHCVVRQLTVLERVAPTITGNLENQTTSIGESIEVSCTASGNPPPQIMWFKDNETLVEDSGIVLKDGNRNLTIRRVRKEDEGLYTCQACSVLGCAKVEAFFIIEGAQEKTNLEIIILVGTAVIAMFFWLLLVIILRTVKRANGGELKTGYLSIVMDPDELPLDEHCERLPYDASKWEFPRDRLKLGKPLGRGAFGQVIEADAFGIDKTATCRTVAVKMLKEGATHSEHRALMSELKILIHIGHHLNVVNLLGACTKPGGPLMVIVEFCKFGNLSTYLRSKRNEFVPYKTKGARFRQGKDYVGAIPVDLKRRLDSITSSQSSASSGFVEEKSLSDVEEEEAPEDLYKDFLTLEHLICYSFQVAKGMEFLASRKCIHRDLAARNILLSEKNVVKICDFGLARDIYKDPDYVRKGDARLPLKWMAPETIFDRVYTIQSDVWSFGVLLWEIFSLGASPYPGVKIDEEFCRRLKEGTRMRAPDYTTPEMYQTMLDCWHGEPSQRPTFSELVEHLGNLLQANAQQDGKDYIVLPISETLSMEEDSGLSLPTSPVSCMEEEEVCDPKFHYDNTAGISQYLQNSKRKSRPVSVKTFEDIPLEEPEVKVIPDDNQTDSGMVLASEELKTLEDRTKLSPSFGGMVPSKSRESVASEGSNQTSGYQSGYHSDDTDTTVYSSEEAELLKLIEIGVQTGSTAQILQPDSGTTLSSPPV
Method: Binding dynamics and affinity of RLYE (SEQ ID NO: 2) to rhVEGFR-2 were evaluated with BIAcore AB (Sweden). A carboxymethylated dextran biosensor chip (CM5, BIAcore AB) was activated with 1-ethyl-3-(3-dimethylaminopropyl)carbodiimide and N-hydroxysuccinimide according to the manufacturer's manual. The rhVEGFR-2 (1 ng/μl, 10 mM Hepes, 150 mM NaCl, 3 mM EDTA, 0.005% Tween-20-containing HBS-EP buffer) was injected over the activated CM5 chip for fixation. Various concentrations of an RLYE (SEQ ID NO: 2) solution was injected over the rhVEGFR-2-fixed center chip with a flow rate of 25 μl/min, and binding and non-binding characteristics between RLYE (SEQ ID NO: 2) and the rhVEGFR-2 were analyzed. The peptide bonds were measured in arbitrary response units, and after the injection of each sample (120 sec), the HBS-EP buffer was passed over a sensor surface to monitor dissociation. The equilibrium dissociation constant (Kd) was derived to a fixing step-combined model.

NO synthase (eNOS) = assay: Western blot, eNOS phosphorylation in VEGF-A-stimulated HUVECs; format: cell-based, human
Method: as §1

[3] = tested on: chick chorioallantoic membrane (CAM); assay: Chick chorioallantoic membrane (CAM) analysis; format: in vivo; conditions: RLYE 0.75 nM, VEGF 50 ng/ml
Method: For a chick chorioallantoic membrane (CAM) analysis, fertilized eggs were incubated for 3 days, and a window was made in the same manner as used in the previous research (18). The window (with a diameter of about 3 cm) was made by removing a shell and an inner layer of the shell, and the exposed part was sealed with cellophane tape. The eggs were stood upright at 37° C. in an incubator (with a humidity of 55 to 60%) and were incubated for 3 days. A Thermanox disc containing 10 μl of a salt-free solution containing RLYE (SEQ ID NO: 2) (0.75 nM) alone or in combination with VEGF (50 ng/ml) was gently placed on a CAM that had been incubated for 10 days. After 72-hour incubation, blood vessels formed above were stained by injecting 1 ml of a 10% intralipose (fat emulsion) solution right under the CAM. The stained blood vessels were photographed using a Nikon digital camera, and the number of blood vessels newly formed around the disc was counted.

[4] = tested on: B16F1 mouse melanoma cells; assay: Mouse melanoma (B16F1) animal model; format: in vivo, C57BL/6J mouse; conditions: 1 mg/kg per day peritoneally
Method: 100 μl each of 2×10^6 B16F1 mouse melanoma cells and 1×10^7 HCT116 human colorectal tumor cells were subcutaneously injected into the left side of a C57BL/6J mouse and a nude mouse. After a tumor volume reached at least 50 to 70 mm3 (taking about 7 days), saline or RLYE (SEQ ID NO: 2) (0.5 or 1.0 mg/kg) was peritoneally injected daily into the mice. A tumor size was two-dimensionally measured with calipers. A tumor volume (mm3) was calculated by a formula of […]. Following homogenization of tumor tissue with PBS and centrifugation (at 12,000×g for 5 min), a hemoglobin-containing supernatant was extracted to be used in analysis with Drabkin's reagent (Sigma). A hemoglobin level was measured by a cyanmethemoglobin method, and the amount of hemoglobin per gram of the tumor was calculated.

Src = assay: Western blot, Src phosphorylation in VEGF-A-stimulated HUVECs; format: cell-based, human; conditions: HUVECs stimulated with VEGF-A
Method: as §1

SMILES: CC(C)C[C@H](NC(=O)[C@@H](N)CCCNC(=N)N)C(=O)N[C@@H](Cc1ccc(O)cc1)C(=O)N[C@@H](CCC(=O)O)C(=O)O [RLYE] (H-RLYE-OH; N-terminus and C-terminus assumed)
- decrease in number of colonies of tumor cells spreading to the lung [1]: 62%
- phosphorylation of Akt (Akt): inhibited
- VEGF-A-induced angiogenesis in Matrigel implant [2]: effectively inhibited
- phosphorylation of FAK (FAK): inhibited
- binding to VEGFR-1 (pull-down) (VEGFR-1): does not bind to VEGFR-1
- binding to rhVEGFR-2 (SPR) (VEGFR-2): effectively binds
- VEGF-A-induced phosphorylation of eNOS (NO synthase (eNOS)): effectively blocked
- VEGF-A-induced blood vessel density in CAM [3]: considerable reduction
- tumor growth [4]: significantly decreased
- tumor size [4]: significantly decreased
- tumor weight [4]: significantly decreased
- phosphorylation of Src (Src): inhibited
